Test results from US8129398B2 (priority 2008, dated 2012).

The molecules below were run against T1, HIV-integrase (Human immunodeficiency virus type 1 group M subtype B, UniProt P12497) (assay: HIV-Integrase Inhibition Activity (SPA bead integration assay with P33 labeled target DNA)). Details: recombinant integrase, class symbols; read-out: in vitro activity.
T1 construct: Recombinant integrase (0.26 ng) was incubated with the beads
Format: biochemical
Description: HIV-Integrase Inhibition Activity. To evaluate in-vitro activity against HIV-integrase, 5 pmole of biotin labeled substrate DNA was bound to 100 μg of Streptavidin coated PVT SPA beads (Amersham Pharmacia Biotech). Recombinant integrase (0.26 ng) was incubated with the beads for 90 min at 37° C. Unbound enzyme was removed by washing the complex followed by addition of inhibitors and 0.1 fmol of P33 labeled target DNA. The reaction was stopped by adding EDTA to a final concentration of 10 mM. Samples were counted in TopCountNXT (Packard) and the CPM was used as a measure of integration. The reaction condition was as described in A. Engelman and R. Craigie, J. Virol. 69, 5908-5911 (1995). The sequences of substrate and target DNA were described in Nucleic Acid Research 22, 1121-1122 (1994). Activity equal to A refers to a compound having IC50=<10 nM while B and C denote compounds having […] and IC50>100 nM respectively.

`CN(C)C(=O)C(=O)NC12CCC(CC1)Cn1c2nc(C(=O)NCCc2cccs2)c(O)c1=O` [Example 354] and `CN(C)C(=O)C(=O)NC12CCC(CC1)Cn1c2nc(C(=O)NCCc2ccccc2)c(O)c1=O` [Example 343] fall in the same range of IC50: 10 to 100 nM for the first, 10 to 100 nM for the second.

`O=C(NC12CCC(CC1)Cn1c2nc(C(=O)NCc2ccc(F)cc2)c(O)c1=O)c1ccccn1` [Example 26, N-(4-Fluorobenzyl)-3-hydroxy-4-oxo-10-((2-pyridinylcarbonyl)amino)-4,6,7,8,9,10-hexahydro-7,10-ethanopyrimido[1,2-a]azepine-2-carboxamide] and `O=C(NC12CCC(CC1)Cn1c2nc(C(=O)NCc2ccc(F)cc2)c(O)c1=O)c1ccncc1` [Example 35, N-(4-Fluorobenzyl)-3-hydroxy-4-oxo-10-((4-pyridinylcarbonyl)amino)-4,6,7,8,9,10-hexahydro-7,10-ethanopyrimido[1,2-a]azepine-2-carboxamide] cannot be ordered by IC50: < 10 nM for the first, < 10 nM for the second.

First: CN(C)C(=O)C(=O)NC12CCC(CC1)Cn1c2nc(C(=O)NCc2cc(Br)c(F)cc2Br)c(O)c1=O [Example 56, N′-(2-((2,5-Dibromo-4-fluorobenzyl)carbamoyl)-3-hydroxy-4-oxo-6,7,8,9-tetrahydro-7,10-ethanopyrimido[1,2-a]azepin-10(4H)-yl)-N,N-dimethylethanediamide]
Second: CN(C)C(=O)C(=O)NC12CCC(CC1)Cn1c2nc(C(=O)NCCCc2ccc(Cl)c(Cl)c2)c(O)c1=O [Example 131, N′-(2-((3-(3,4-Dichlorophenyl)propyl)carbamoyl)-3-hydroxy-4-oxo-6,7,8,9-tetrahydro-7,10-ethanopyrimido[1,2-a]azepin-10(4H)-yl)-N,N-dimethylethanediamide]
The IC50 of the first is lower: < 10 nM for the first, 10 to 100 nM for the second.

`Cc1ccc(C(=O)NC23CCC(CC2)Cn2c3nc(C(=O)NCc3ccc(F)cc3)c(O)c2=O)o1` [Example 237, 7,10-Ethanopyrimido[1,2-a]azepine-2-carboxamide, N-[(4-fluorophenyl)methyl]-4,6,7,8,9,10-hexahydro-3-hydroxy-10-[[(5-methyl-2-furanyl)carbonyl]amino]-4-oxo-] and `Cc1ncoc1C(=O)NC12CCC(CC1)Cn1c2nc(C(=O)NCc2ccc(F)cc2)c(O)c1=O` [Example 34, N-(4-Fluorobenzyl)-3-hydroxy-10-(((4-methyl-1,3-oxazol-5-yl)carbonyl)amino)-4-oxo-4,6,7,8,9,10-hexahydro-7,10-ethanopyrimido[1,2-a]azepine-2-carboxamide] cannot be ordered by IC50: < 10 nM for the first, < 10 nM for the second.

First: O=C(NCc1ccc(F)cc1)c1nc2n(c(=O)c1O)CC1CNCC2C1 (stereo not drawn) [Example 7, 7,11-Methano-4H-pyrimido[1,2-a][1,5]diazocine-2-carboxamide, N-[(4-fluorophenyl)methyl]-6,7,8,9,10,11-hexahydro-3-hydroxy-4-oxo-]
Second: CC(=O)NC12CCC(Cn3c1nc(C(=O)NCc1ccc(F)cc1)c(O)c3=O)C2 (stereo not drawn) [Example 191, 7,10-Methanopyrimido[1,2-a]azepine-2-carboxamide, 10-(acetylamino)-N-[(4-fluorophenyl)methyl]-4,6,7,8,9,10-hexahydro-3-hydroxy-4-oxo-]
The IC50 of the first is higher: 10 to 100 nM for the first, < 10 nM for the second.

`CNC(=O)NC12CCC(CC1)Cn1c2nc(C(=O)NCc2ccc(F)c(C)c2)c(O)c1=O` [Example 327, 7,10-Ethanopyrimido[1,2-a]azepine-2-carboxamide, N-[(4-fluoro-3-methylphenyl)methyl]-4,6,7,8,9,10-hexahydro-3-hydroxy-10-[[(methylamino)carbonyl]amino]-4-oxo-] and `Cc1cc(CNC(=O)c2nc3n(c(=O)c2O)CC2CCC3(NC(=O)C(=O)N(C)CC(F)(F)F)CC2)ccc1F` [Example 51, N′-(2-((4-Fluoro-3-methylbenzyl)carbamoyl)-3-hydroxy-4-oxo-6,7,8,9-tetrahydro-7,10-ethanopyrimido[1,2-a]azepin-10(4H)-yl)-N-methyl-N-(2,2,2-trifluoroethyl)ethanediamide] cannot be ordered by IC50: < 10 nM for the first, < 10 nM for the second.

`Cc1cc(C(=O)NC23CCC(CC2)Cn2c3nc(C(=O)NCc3ccc(F)cc3-n3ncnc3C)c(O)c2=O)no1` [Example 37, N-(4-Fluoro-2-(5-methyl-1H-1,2,4-triazol-1-yl)benzyl)-3-hydroxy-10-(((5-methyl-3-isoxazolyl)carbonyl)amino)-4-oxo-4,6,7,8,9,10-hexahydro-7,10-ethanopyrimido[1,2-a]azepine-2-carboxamide] and `CN(C)C(=O)NC12CCC(CC1)Cn1c2nc(C(=O)NCc2ccc(F)cc2)c(O)c1=O` [Example 27, 10-((Dimethylcarbamoyl)amino)-N-(4-fluorobenzyl)-3-hydroxy-4-oxo-4,6,7,8,9,10-hexahydro-7,10-ethanopyrimido[1,2-a]azepine-2-carboxamide] fall in the same range of IC50: 10 to 100 nM for the first, 10 to 100 nM for the second.

Compared with `CN(C(=O)C(=O)N1CCCC1)C12CCC(CC1)Cn1c2nc(C(=O)NCc2ccc(F)cc2)c(O)c1=O` [Example 153, N-(4-Fluorobenzyl)-3-hydroxy-10-(methyl(oxo(1-pyrrolidinyl)acetyl)amino)-4-oxo-4,6,7,8,9,10-hexahydro-7,10-ethanopyrimido[1,2-a]azepine-2-carboxamide], `CC(=O)N1CCCC1C(=O)NC12CCC(CC1)Cn1c2nc(C(=O)NCc2ccc(F)cc2)c(O)c1=O` (stereo in doubt) [Example 253, 7,10-Ethanopyrimido[1,2-a]azepine-2-carboxamide, 10-[[[(2R)-1-acetyl-2-pyrrolidinyl]carbonyl]amino]-N-[(4-fluorophenyl)methyl]-4,6,7,8,9,10-hexahydro-3-hydroxy-4-oxo-] is higher in IC50: < 10 nM for the first, 10 to 100 nM for the second. The first is the more potent here.

`O=C(NC12CCC(CC1)Cn1c2nc(C(=O)NCc2ccc(F)cc2)c(O)c1=O)C(=O)N1CCN(CCOCCO)CC1` [Example 75, N-(4-Fluorobenzyl)-3-hydroxy-10-(((4-(2-(2-hydroxyethoxy)ethyl)-1-piperazinyl)(oxo)acetyl)amino)-4-oxo-4,6,7,8,9,10-hexahydro-7,10-ethanopyrimido[1,2-a]azepine-2-carboxamide] and `O=C(NC12CCC(CC1)Cn1c2nc(C(=O)NCc2ccc(F)cc2)c(O)c1=O)C(=O)N1CC[C@H](F)C1` [Example 103, N-(4-Fluorobenzyl)-10-((((3S)-3-fluoro-1-pyrrolidinyl)(oxo)acetyl)amino)-3-hydroxy-4-oxo-4,6,7,8,9,10-hexahydro-7,10-ethanopyrimido[1,2-a]azepine-2-carboxamide] cannot be ordered by IC50: < 10 nM for the first, < 10 nM for the second.

`O=C(NC12CCC(CC1)Cn1c2nc(C(=O)NCc2ccc(F)cc2)c(O)c1=O)C(=O)N1CCN(C(=O)N2CCOCC2)CC1` [Example 79, N-(4-Fluorobenzyl)-3-hydroxy-10-(((4-(4-morpholinylcarbonyl)-1-piperazinyl)(oxo)acetyl)amino)-4-oxo-4,6,7,8,9,10-hexahydro-7,10-ethanopyrimido[1,2-a]azepine-2-carboxamide] and `CC(C)(O)C(=O)NC12CCC(CC1)Cn1c2nc(C(=O)NCc2ccc(F)cc2)c(O)c1=O` [Example 261, 7,10-Ethanopyrimido[1,2-a]azepine-2-carboxamide, N-[(4-fluorophenyl)methyl]-4,6,7,8,9,10-hexahydro-3-hydroxy-10-[(2-hydroxy-2-methyl-1-oxopropyl)amino]-4-oxo-] cannot be ordered by IC50: < 10 nM for the first, < 10 nM for the second.

`CC(CCc1ccccc1)NC(=O)c1nc2n(c(=O)c1O)CC1CCC2(NC(=O)C(=O)N(C)C)CC1` (stereo not drawn) [Example 339] gave an IC50 of 10 to 100 nM.
